# pIC50: −log10 of the molar value. “And” between values parts separate entries of the source, which are not always exact repeats. Equal entries are not always repeated.
# Experiments:
# [1] = test system: NF-κB; experiment: TNF-α-stimulated NF-κB dual luciferase reporter assay in HeLa cells; type: cell-based
# Method: NF-κB activity was assessed using a previously described dual plasmid reporter system. HeLa cells were transfected with NF-κB luciferase (Stratagene Products Division, Agilent Technologies, La Jolla, CA, USA) and pRLuc-N3 (PerkinElmer, Waltham, MA, USA) at an 8:1 ratio, respectively, in triplicate. […] NF-κB activity was measured 5 h later with a Dual-Glo Luciferase Assay (Promega, Madison, WI, USA) and an Omni plate reader (BMG Labtech, Cary, NC, USA). The ratio of firefly luciferase luminescence (NF-κB reporter) to Renilla luciferase luminescence (control) was normalized for the number of viable transfected cells. Data are reported as a ratio of activity of viable treated cells over the activity of cells not exposed to TNF-α or drug (fold stimulation above basal untreated levels of activity). The viability of HeLa cells with and without drug was also measured using a CellTiter-Glo luminescent viability assay (Promega). […]
# NF-κB activity was assessed in HeLa cells that were transiently transfected with two reporter constructs as described in the manuscript. Agents were tested for their ability to block TNF- […]
# Expression of the luciferase from the Renilla construct was used as a measure of viability, which was confirmed with a cytotoxicity assay (see later section).
# [2] = test system: RAW 264.7 cells; experiment: RANKL-mediated osteoclastogenesis / matrix resorption (Osteologic) assay; type: cell-based, murine
# Method: RAW 264.7 cells (American Type Culture Collection [ATCC], Manassas, VA, USA), a murine monocytic cell line that differentiates in the presence of RANKL, was used for measurements of osteoclastogenesis and osteoclast activity. Cells were amplified on nonadherent culture substratum in high-glucose Dulbecco’s modified Eagle’s medium (DMEM) containing 10 % fetal bovine serum (FBS) and penicillin-streptomycin in a 37 °C, 5 % CO2, humidified incubator and were passaged by manual dissociation. […] Plates were subsequently rinsed, bleached, dried, and analyzed for matrix degradation using a Nikon COOLSCOPE (Nikon Instruments, Melville, NY, USA). Matrix resorption was quantified using EclipseNet (Nikon Instruments)/Visiopharm (Visiopharm, Hørsholm, Denmark) software (see Additional file 1).
# In Vitro Osteoclastogenesis
# Osteoclastogenic activity was measured using BD osteologic plates and quantitation of the degree of bone matrix digestion on the plate surface. Images from the BD Osteologic assay used to […]
# left pane depicts an example of a control well after removal of cells from matrix. Pseudocoloring of matrix (blue) and pits (green) is shown in the far right pane. A transparent overlay of the two images is shown in the center.
# Figure 5 - Measurement of drug effects on osteoclastogenesis and osteoclast activity.
# Comparisons were made between RANKL treated control wells and wells treated with both RANKL and […]
# Agents were initially tested either during differentiation or post differentiation in the bone assay […]
# (e.g., Figure 2, Sulfazalazine). […]
# indicated (*/**: p < 0.05/0.01, unpaired t-test versus RANKL control). […]
# [3] = test system: MMP-13; experiment: MMP-13 ELISA on supernatants of TNF-α-treated chondrogenic pellets; type: cell-based, human
# [4] = test system: HeLa cells; experiment: HeLa cell viability (CellTiter-Glo)
# Method: NF-κB activity was assessed using a previously described dual plasmid reporter system. HeLa cells were transfected with NF-κB luciferase (Stratagene Products Division, Agilent Technologies, La Jolla, CA, USA) and pRLuc-N3 (PerkinElmer, Waltham, MA, USA) at an 8:1 ratio, respectively, in triplicate. […] NF-κB activity was measured 5 h later with a Dual-Glo Luciferase Assay (Promega, Madison, WI, USA) and an Omni plate reader (BMG Labtech, Cary, NC, USA). The ratio of firefly luciferase luminescence (NF-κB reporter) to Renilla luciferase luminescence (control) was normalized for the number of viable transfected cells. Data are reported as a ratio of activity of viable treated cells over the activity of cells not exposed to TNF-α or drug (fold stimulation above basal untreated levels of activity). The viability of HeLa cells with and without drug was also measured using a CellTiter-Glo luminescent viability assay (Promega).
# In Vitro Hela Cell Drug Toxicity Testing
# Potential drug toxicity was measured using a CTG assay and HeLa cells (Promega). Drugs not tested in
# this assay were tested in either of the in vitro toxicity assays already presented (synovial or chondrocyte
# Table 3- Drug toxicity measured using a CTG assay and HeLa cells.
# [5] = Comparison of in vitro screens: overlapping effective and nontoxic range; settings: for Overlapping effective and nontoxic range: inhibits with minimal or no toxicity to synovium or cartilage, overlapping range if effective in more than one assay;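 on all read-outs here: compares non-toxic ranges in synovial cells and chondrocytes with effective ranges against NFkB, MMP-13 and osteoclasts, giving their overlap as the predicted efficacy range in uM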
# [6] = test system: IKK-2; settings: reported; cited from earlier work
# [7] = test system: Normal human articular chondrocytes; experiment: Cytotoxicity to chondrogenic pellets (CellTiter-Blue)
# Method: Differentiated chondrogenic pellets were used both to test the ability of drugs to block MMP-13 activity and to test for drug toxicity. […] Supernatants were collected and analyzed for MMP-13 using an enzyme-linked immunosorbent assay (GE Healthcare Life Sciences, Little Chalfont, UK). Cytotoxicity to pellets was assessed using CellTiter-Blue (Promega).
# [8] = test system: SW982; experiment: Synovial toxicity (CellTiter-Glo), with or without TNF-α
# Method: Viability was measured with the CellTiter-Glo luminescent viability assay (Promega). […] To more accurately predict the effects of the drugs on osteoarthritic synovium, cells were tested with or without TNF-α (20 ng/ml; BioSource).
# In Vitro Toxicity Testing with a Synovial Cell Line
# Compounds were tested for synovial toxicity using SW982 cells alone or in the presence of TNF as
# [9] = test system: NF-κB; settings: cited from earlier work
# [10] = test system: MIA rat model of OA; experiment: MIA trial 1 weight bearing (daily s.c. clonidine 0.1, fluocinolone 0.002, morphine 6 mg/kg); type: in vivo
# Method: (§1) Weight bearing (WB; incapacitance) was measured five times per day, once per week, using a Linton incapacitance meter (Stoelting Co., Wood Dale, IL, USA). Rats were acclimated to the meter before study initiation, and, similarly, immediately before WB, the animals were placed in the meter and allowed to acclimate for 2–5 minutes. Each hind paw was placed on a separate force plate so that the force exerted by each side could be averaged over a 5-second interval, and the mean of three readings was taken for each data point. Right paw force was compared with that on the left side for each group to confirm that animals were displaying incapacitance and/or pain behavior. Differences in force (left minus right) and right paw force as a percentage of the total force exerted by both paws were determined and compared between groups.
# Following isoflurane anesthesia, 50 μl (2 mg) of MIA was injected into the synovial space of the left knee. Animals were randomly assigned to groups, and pain behavior was assessed 7, 14, 21, and 28 days following MIA injection and intervention using WB with the Stoelting incapacitance meter (trial 1) or the dRS test (trials 2 and 3). […] Animals received MIA treatment and then saline control or therapeutic. […] Histopathology was performed at each time point and at study termination. All studies were conducted in accordance with the International Association for the Study of Pain Guidelines and were approved by the Algos Therapeutics, Inc. Institutional Animal Care and Use Committee (IACUC) before initiation. Those running the studies were blind to the treatments. See Additional file 1 for further details. […]
# dosing were housed three per cage. Animals had free access to food and water and were maintained […]
# The animal colony was maintained at approximately 21 °C. All experiments were conducted in accordance with the International Association for the Study of Pain Guidelines.
# [11] = test system: MMT/MCLT rat model of OA; experiment: MMT/MCLT trial 1 weight bearing (daily morphine 10 mg/kg, tacrolimus 0.3 or 0.6 mg/kg, fluocinolone 5 or 10 μg/kg, clonidine 100 μg/kg, alendronate 10 μg/kg i.p.; curcumin, withaferin 50 mg/kg p.o.); type: in vivo; settings: low or only dose
# Method: as §1
# Following isoflurane anesthesia, the medial collateral ligament was transected just below its attachment to the meniscus in the right knee. The meniscus was cut at its narrowest point away from the ossicles so as not to damage the tibial surface and to ensure that the anterior and posterior meniscus halves were freely movable. […] In trial 2, drugs were administered IA weekly beginning 1 week following surgery. Three weeks postsurgery, animals were humanely killed and their right knees were collected for histopathology. All studies were conducted in accordance with the International Association for the Study of Pain Guidelines and were approved by the Bolder BioPATH IACUC (Boulder, CO, USA) in compliance with regulations before study initiation (IACUC protocol BBP03-006). Those running the studies were blinded to the treatments. See Additional file 1 for further details.
# Isoflurane and the right knee area prepared for surgery. A skin incision was made over the medial aspect of the knee and the medial collateral ligament was exposed by blunt dissection and then transected. The medial meniscus was cut through the full thickness to simulate a complete tear and the skin was then closed with suture.
# All pharmaceutical agents were prepared and stored as recommended by the supplier. Daily drug preparations were made fresh from stock solutions. […]
# In Trial 2 drugs were […]
# administered IA weekly beginning one week following surgery. […]
# were delivered by gavage and were prepared in 0.3% Methyl Cellulose.
# WB was measured five times a day, once a week, using a Linton incapacitance meter (Stoelting Co.) to assess pain behavior. Rats were acclimated to the incapacitance meter prior to study initiation.
# Similarly, immediately prior to WB animals were placed in the incapacitance meter and allowed to acclimate for 2-5 minutes. Each hind paw was placed on a separate force plate so that the force exerted by each side could be averaged over a 5 second interval and the mean of three readings taken for each data point. Right paw force was compared to left for each group to confirm that animals were displaying incapacitance / pain behavior. Difference in force (left minus right) and right paw force as a percentage of the total force exerted by both paws were determined and compared between groups. Three weeks after surgery, animals were humanely euthanized and right knees collected for histopathology evaluation.
# Figure 2. MMT/MCLT Trial Timeline […]
# MMT/MCLT Dosing (once/day)
# The study design and animal usage was approved by Bolder BioPATH’s Institutional Animal Care and Use Committee (IACUC) for compliance with regulations prior to study initiation (IACUC […]
# Labs. Animals were identified by a distinct mark at the base of the tail delineating group and animal number. After randomization, all cages were labeled with protocol number, group numbers, and animal numbers with appropriate color-coding (see protocol).
# [12] = test system: MMT/MCLT rat model of OA; experiment: MMT/MCLT trial 1 histopathology (same doses); type: in vivo; settings: low or only dose
# Description: For MMT/MCLT rat knee joints, sections were cut in 200-μm steps; stained with toluidine blue (also with a right and left half per section); and similarly analyzed for cartilage degeneration, proteoglycan loss, collagen damage, and osteophyte formation. Results were averaged across the three sections for an overall semiquantitative score. Regional differences across the tibial plateau were taken into consideration by dividing each section into three zones delineated using an ocular micrometer (outside, middle, and inside). Scores were based on the percentage of area affected within the zone.
# Cartilage degeneration in the tibia was scored on a 5-point scale as detailed in the Methods section of Additional file 1. The total extent of degeneration of the tibial plateau was measured (in micrometers) and included an analysis of cell loss, proteoglycan loss, and collagen damage. Significant cartilage degeneration reflecting any degeneration extending through more than 50 % of the cartilage thickness was also measured. Collagen damage across the medial tibial plateau (the most severely affected section of the two halves) was also quantified.
# Osteophytes and femoral cartilage degeneration were analyzed as detailed in Additional file 1. Scoring of the osteophytes and categorization into small, medium, and large was performed using an ocular micrometer. The actual osteophyte measurement (tidemark to farthest distance point extending toward the synovium) was also recorded. The femoral cartilage degeneration score and the three-zone sum of the tibial cartilage degeneration scores (mean of three levels) were summed to create a total cartilage degeneration score. The mean osteophyte score for each joint was added to this value to create a total joint score. […]
# Histopathology MMT/MCLT Model
smiles,measurement,setting,value
"NC(=O)Nc1sc(-c2ccccc2)cc1C(N)=O [IKK inhibitor VI, (5-Phenyl-2-ureido)thiophene-3-carboxamide]",Effective against NF κβ (p<0.05),[1],0.23 to 15.3 µM
same,Effective range against NFkB,[1],≥ 0.95 µM
same,Effective range against Osteoclasts,[2],≥ 0.5 µM
same,Effective range against MMP-13,[3],≥ 0.24 µM
same,Non-toxic concentrations,[4],0 to 0.9 M
same,Toxic concentrations (p<0.05),[4],1.9 to 3.83 µM
same,Non-toxic & predicted range of efficacy,[5],0.95 to 4.0 µM
same,Overlapping effective and nontoxic range,[5],0.24 to 15.2 µM
same,pIC50,[6],7.74 to 7.89
same,Non-toxic range (Chondrocyte),[7],0.23 to 15.6 µM
same,Non-toxic range (Synovial),[8],0.028 to 0.25 µM
"O=C1C(=Cc2ccccc2F)CNCC1=Cc1ccccc1F [Curcumin-14, 3,5-bis(2-flurobenzylidene)piperidin-4-one]",Effective range against NFkB,[1],≥ 2.5 µM
same,Effective range against Osteoclasts,[2],Not effective
same,Effective range against MMP-13,[3],≥ 0.625 µM
same,Non-toxic & predicted range of efficacy,[5],2.5 to 10 µM
same,Overlapping effective and nontoxic range,[5],2.5 to 10 µM
same,times more potent than curcumin,[9]; reportedly,"Reportedly 10 times more potent than curcumin Inhibits NF-κB by inhibiting IκB kinase (IKK) [82] Potent anticarcinogenic activity inducing death of lung, breast, ovarian, and cervical cancer cells [82]"
CN1CC[C@]23c4c5ccc(O)c4O[C@H]2[C@@H](O)C=C[C@H]3[C@H]1C5 [Morphine],"Weight bearing, hours after dosing with significant difference",[10]; day 14,1 h
same,"Weight bearing, hours after dosing with significant difference","[10]; day 21, BL baseline","BL, 1, 3"
same,"Weight bearing, hours with significant effect",[11]; day 7,1 h
same,"Weight bearing, hours with significant effect",[11]; day 21,"3,5 h"
same,Bone score,[12]; mean,3.63
same,"Depth ratio any matrix change, mean",[12]; mean,0.34
same,"Depth ratio any matrix change, zone 2",[12]; mean,0.11
same,Femoral cartilage degeneration score,[12]; mean,2.33 and 2.33 ± 0.66
same,"Tibial cartilage degeneration score, 3-zone total",[12]; mean,6.21
same,"Tibial cartilage degeneration score, zone 1",[12]; mean,4.25
same,"Tibial cartilage degeneration score, zone 2",[12]; mean,1.92
same,"Tibial cartilage degeneration score, zone 3",[12]; mean,0.04
same,"Tibial cartilage degeneration width, significant",[12]; mean,666.67 µm
same,"Tibial cartilage degeneration width, total",[12]; mean,1279.17 µm
same,Tibial osteophyte measure,[12]; mean,573.75 µm
same,Tibial osteophyte score,[12]; mean,4.42
same,Total joint score,[12]; mean,12.96 and 12.96 ± 0.89
same,Total joint score w/o femur,[12]; mean,10.63
same,"% decrease, bone score",[12]; vs saline group,-12%
same,"% decrease, depth ratio mean",[12]; vs saline group,5%
same,"% decrease, depth ratio zone 2",[12]; vs saline group,42%
same,"% decrease, femoral cartilage degeneration score",[12]; vs saline group,-27%
same,"% decrease, osteophyte measure",[12]; vs saline group,-12%
same,"% decrease, osteophyte score",[12]; vs saline group,-13%
same,"% decrease, significant degeneration width",[12]; vs saline group,8%
same,"% decrease, tibial score 3-zone total",[12]; vs saline group,5%
same,"% decrease, tibial score zone 1",[12]; vs saline group,1%
same,"% decrease, tibial score zone 2",[12]; vs saline group,13%
same,"% decrease, tibial score zone 3",[12]; vs saline group,0%
same,"% decrease, total degeneration width",[12]; vs saline group,3%
same,"% decrease, total joint score",[12]; vs saline group,-5%
same,"% decrease, total joint score w/o femur",[12]; vs saline group,-2%
"COc1ccc(/C=C/c2ccccc2F)cc1 [NF-κB activation inhibitor IV, (E)-2-fluoro-4′-methoxystilbene]",fold more potent than resveratrol at inhibiting NF-κB,[9],Experimentally used as an anti-inflammatory but not an antioxidant 130-fold more potent than resveratrol at inhibiting NF-κB [94]
